# Results reported in ChEMBL document CHEMBL3853303, “Nazumazoles D-F, Cyclic Pentapeptides That Inhibit Chymotrypsin, from the Marine Sponge Theonella swinhoei” (J Nat Prod, 2016).
# Assay: Inhibition of bovine alpha-chymotrypsin using Suc-Leu-Leu-Val-Tyr 4-methylcoumaryl-7-amide as substrate assessed as formation of MCA after 1 hr by fluorometric method
# Design: species or system Bos taurus
row,IC50 [µM],SMILES
1,3,CCC[C@@H]1NC(=O)[C@@H]2C[C@H](C)CN2C(=O)[C@@H](NC=O)CNC(=O)[C@@H](CO)NC(=O)c2coc(n2)[C@H](C)NC(=O)C1=O
2,2,CCC[C@@H]1NC(=O)[C@@H]2C[C@H](C)CN2C(=O)[C@@H](NC=O)CNC(=O)[C@@H](CC)NC(=O)c2coc(n2)[C@H](C)NC(=O)C1=O
3,10,CC(C)C[C@@H]1NC(=O)[C@@H]2C[C@H](C)CN2C(=O)[C@@H](NC=O)CNC(=O)[C@@H](CO)NC(=O)c2coc(n2)[C@H](C)NC(=O)C1=O
